Assay: mn = molality of the nth substance listed, in mol/kg
Conditions: 298.15 K, 101.33 kPa, Liquid, Alternating current cell with electrodes

CCCCCCCCCCCCn1cc[n+](C)c1.O=S(=O)([O-])C(F)(F)C(F)(F)C(F)(F)C(F)(F)F [1-dodecyl-3-methylimidazolium perfluorobutanesulfonate] + O
Conditions | electrical conductivity [S/m]
m1 = 1.598e-05 | 0.00011
m1 = 2.066e-05 | 0.00016
m1 = 2.421e-05 | 0.00018
m1 = 2.925e-05 | 0.00022
m1 = 3.682e-05 | 0.0003
m1 = 4.977e-05 | 0.00041
m1 = 5.764e-05 | 0.00048
m1 = 7.583e-05 | 0.00063
m1 = 8.783e-05 | 0.0007
m1 = 0.0001043 | 0.00085
m1 = 0.0001122 | 0.00089
m1 = 0.0001213 | 0.00095
m1 = 0.000132 | 0.00101
m1 = 0.0001448 | 0.00109
m1 = 0.0001603 | 0.00118
m1 = 0.0001796 | 0.00129
m1 = 0.0001903 | 0.00136

CCCC[N+]1(C)CCCC1.O=S(=O)([O-])C(F)(F)C(F)(F)C(F)(F)C(F)(F)F [1-butyl-1-methylpyrrolidinium perfluorobutanesulfonate] + O
Conditions | electrical conductivity [S/m]
m1 = 0.004597 | 0.0233
m1 = 0.005016 | 0.0254
m1 = 0.005639 | 0.0279
m1 = 0.006033 | 0.0293
m1 = 0.006491 | 0.0311
m1 = 0.007025 | 0.0343
m1 = 0.007655 | 0.0363
m1 = 0.008405 | 0.0397
m1 = 0.00933 | 0.0447
m1 = 0.0105 | 0.0483
m1 = 0.012 | 0.0554
m1 = 0.01274 | 0.0584
m1 = 0.01401 | 0.0642
m1 = 0.01533 | 0.0697
m1 = 0.01608 | 0.0731
m1 = 0.01691 | 0.0769
m1 = 0.01784 | 0.0804

CCCCCCCCn1cc[n+](C)c1.O=S(=O)([O-])C(F)(F)C(F)(F)C(F)(F)C(F)(F)F [1-methyl-3-octylimidazolium perfluorobutanesulfonate] + O
Conditions | electrical conductivity [S/m]
m1 = 0.0003013 | 0.0016
m1 = 0.0007028 | 0.0037
m1 = 0.001019 | 0.0054
m1 = 0.001249 | 0.0069
m1 = 0.00155 | 0.008
m1 = 0.001919 | 0.0102
m1 = 0.0022 | 0.0117
m1 = 0.002596 | 0.0136
m1 = 0.002912 | 0.0145
m1 = 0.003181 | 0.0157
m1 = 0.003623 | 0.017
m1 = 0.003988 | 0.0176
m1 = 0.004309 | 0.0183
m1 = 0.004701 | 0.0192
m1 = 0.005065 | 0.0202
m1 = 0.005333 | 0.0206
m1 = 0.005728 | 0.0209

CCCC[N+](CCCC)(CCCC)CCCC.O=S(=O)([O-])C(F)(F)C(F)(F)C(F)(F)C(F)(F)F [tetrabutylammonium perfluorobutanesulfonate] + O
Conditions | electrical conductivity [S/m]
m1 = 0.002247 | 0.0136
m1 = 0.002283 | 0.0138
m1 = 0.002308 | 0.0139
m1 = 0.002329 | 0.014
m1 = 0.002356 | 0.0142
m1 = 0.002375 | 0.0143
m1 = 0.002407 | 0.0145
m1 = 0.002447 | 0.0147
m1 = 0.002477 | 0.0148
m1 = 0.002494 | 0.0149
m1 = 0.002516 | 0.015
m1 = 0.002534 | 0.0151

CCCCCC[n+]1ccn(C)c1.O=S(=O)([O-])C(F)(F)C(F)(F)C(F)(F)C(F)(F)F [1-methyl-3-hexylimidazolium perfluorobutanesulfonate] + O
Conditions | electrical conductivity [S/m]
m1 = 0.0006843 | 0.0038
m1 = 0.001003 | 0.0055
m1 = 0.001271 | 0.0072
m1 = 0.001953 | 0.0108
m1 = 0.002415 | 0.0133
m1 = 0.002944 | 0.0163
m1 = 0.003168 | 0.0174
m1 = 0.00367 | 0.0201
m1 = 0.004364 | 0.0235
m1 = 0.004701 | 0.0252
m1 = 0.005473 | 0.0291
m1 = 0.006118 | 0.0323
m1 = 0.006443 | 0.0339
m1 = 0.007009 | 0.0367
m1 = 0.007312 | 0.0382
m1 = 0.007666 | 0.04
m1 = 0.007936 | 0.0413
m1 = 0.008317 | 0.0431
m1 = 0.008657 | 0.0448
m1 = 0.009459 | 0.0484
m1 = 0.009734 | 0.0497
m1 = 0.01004 | 0.051
m1 = 0.01032 | 0.0523
m1 = 0.01057 | 0.0535
m1 = 0.01151 | 0.0567
m1 = 0.01188 | 0.0581
m1 = 0.01244 | 0.0611
m1 = 0.01292 | 0.0624
m1 = 0.01353 | 0.0644
m1 = 0.01416 | 0.0668
m1 = 0.01452 | 0.069
